Source: patent US9221815B2, “Solid state form of vemurafenib choline salt” (ratiopharm GmbH, priority 2012, dated 2015)
Like-named read-outs stand apart in the source and are kept apart here. Values belong to the molecule of their own block, whether it stands above or below them.

Key:
[1] = amorphous form; cited from earlier work
[2] = in accordance with WO 2010/114928 and WO 2010/129570; cited from earlier work

SMILES: CCCS(=O)(=O)Nc1ccc(F)c(C(=O)c2c[nH]c3ncc(-c4ccc(Cl)cc4)cc23)c1F [Amorphous Vemurafenib]
Stability (in words) [1]: not stable

Period stable upon storage (45° C. and 75% relative humidity (RH)): at least 2 weeks
Period stable upon storage (ambient conditions (room temperature and atmospheric humidity)): at least 7 months
SMILES: CCCS(=O)(=O)Nc1ccc(F)c(C(=O)c2c[nH]c3ncc(-c4ccc(Cl)cc4)cc23)c1F.C[N+](C)(C)CCO [Vemurafenib Choline crystalline C1]

SMILES: CCCS(=O)(=O)Nc1ccc(F)c(C(=O)c2c[nH]c3ncc(-c4ccc(Cl)cc4)cc23)c1F [Vemurafenib, propane-1-sulfonic acid {3-[5-(4-chlorophenyl)-1H-pyrrolo[2,3-b]pyridine-3-carbonyl]-2,4-difluoro-phenyl}-amide]
Solubility (in words) [2]: extremely low solubility
